Experimental data taken from the NIST ThermoML archive (doi:10.1016/j.jct.2012.05.009).

Assay: mn = molality of the nth substance listed, in mol/kg
Conditions: 101 kPa, Liquid, Vibrating tube method

CC(=O)CCCCn1c(=O)c2c(ncn2C)n(C)c1=O [3,7-dimethyl-1-(5-oxohexyl)-3,7-dihydro-1H-purine-2,6-dione] + O
mass density [kg/m3]
Conditions | m1 = 0.09736 | m1 = 0.0976 | m1 = 0.09842 | m1 = 0.09851 | m1 = 0.1012
293.15 K | 1003.77 | 1003.77 | 1003.81 | 1003.83 | 1003.97
298.15 K | 1002.51 | 1002.51 | 1002.55 | 1002.57 | 1002.7
303.15 K | 1001.02 | 1001.02 | 1001.06 | 1001.08 | 1001.21
308.15 K | 999.319 | 999.32 | 999.356 | 999.381 | 999.508
